PubChem BioAssay (NCI)
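1) Cells in 96-well plates. 2) Compound, 48 h, 5 concentrations. 3) Linear interpolation between surrounding doses. 4) Unreached endpoint = highest concentration. At the GI50, growth is halved. TGI is the concentration that stops growth completely.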 *1 amine or outer side, *2 acyl side, *3 side chain or, on linkers, in order; H or OH if unused. Where a SMILES comes first, the peptide text is derived from it. [ ]: non-standard residue; d: D form. The star is where a group is joined. X11 = C/C=C/CC(C)C(O)[C@H](N[*:1])C(=O)[*:2]; Leu(ol) = CC(C)C[C@H](N)CO; Iva = CC[C@](C)(N)C(=O)O; Octanoyl = CCCCCCCC(=O)*; Aib = CC(C)(N)C(=O)O

Assays:
Test in all cases: NCI anticancer screen, dose series, 48 h
OVCAR-3 ovarian = test system: OVCAR-3 ovarian
K-562 leukemia = test system: K-562 leukemia
HT29 colon = test system: HT29 colon
OVCAR-5 ovarian = test system: OVCAR-5 ovarian
A549 NSCLC = test system: A549 NSCLC
RXF 393 renal = test system: RXF 393 renal
BT-549 breast = test system: BT-549 breast
CAKI-1 renal = test system: CAKI-1 renal
A498 renal = test system: A498 renal
UACC-257 melanoma = test system: UACC-257 melanoma
HCT-15 colon = test system: HCT-15 colon
HOP-62 NSCLC = test system: HOP-62 NSCLC
M14 melanoma = test system: M14 melanoma
SF-268 CNS = test system: SF-268 CNS
MDA-MB-231 breast = test system: MDA-MB-231 breast
TK-10 renal = test system: TK-10 renal
NCI/ADR-RES ovarian = test system: NCI/ADR-RES ovarian
NCI-H226 lung = test system: NCI-H226 lung
MOLT-4 leukemia = test system: MOLT-4 leukemia
SK-OV-3 ovarian = test system: SK-OV-3 ovarian
SNB-19 CNS = test system: SNB-19 CNS
HCC-2998 colon = test system: HCC-2998 colon
EKVX NSCLC = test system: EKVX NSCLC
HL-60(TB) leukemia = test system: HL-60(TB) leukemia
MCF7 breast = test system: MCF7 breast
ACHN renal = test system: ACHN renal
LOX IMVI melanoma = test system: LOX IMVI melanoma
SK-MEL-28 melanoma = test system: SK-MEL-28 melanoma
U251 CNS = test system: U251 CNS
SK-MEL-2 melanoma = test system: SK-MEL-2 melanoma
DU-145 prostate = test system: DU-145 prostate
NCI-H460 lung = test system: NCI-H460 lung
CCRF-CEM leukemia = test system: CCRF-CEM leukemia
SN12C renal = test system: SN12C renal
KM12 colon = test system: KM12 colon
SR leukemia = test system: SR leukemia
MDA-MB-435 = test system: MDA-MB-435
786-0 renal = test system: 786-0 renal
HS 578T breast = test system: HS 578T breast
COLO 205 colon = test system: COLO 205 colon
SF-539 CNS = test system: SF-539 CNS
UO-31 renal = test system: UO-31 renal
SW-620 colon = test system: SW-620 colon
NCI-H522 lung = test system: NCI-H522 lung
OVCAR-4 ovarian = test system: OVCAR-4 ovarian
MALME-3M melanoma = test system: MALME-3M melanoma
SNB-75 CNS = test system: SNB-75 CNS
IGROV1 ovarian = test system: IGROV1 ovarian
SK-MEL-5 melanoma = test system: SK-MEL-5 melanoma
PC-3 prostate = test system: PC-3 prostate
HCT-116 colon = test system: HCT-116 colon
SF-295 CNS = test system: SF-295 CNS
UACC-62 melanoma = test system: UACC-62 melanoma
RPMI-8226 leukemia = test system: RPMI-8226 leukemia
T-47D breast = test system: T-47D breast
OVCAR-8 ovarian = test system: OVCAR-8 ovarian

C/C=C/CC(C)C(O)[C@H](NC(=O)[C@@H]1CCCN1C(=O)C(C)(C)NC(=O)CCCCCCC)C(=O)N[C@@](C)(CC)C(=O)N[C@@H](CCC(N)=O)C(=O)N[C@H](CCC(N)=O)C(=O)NC(C)(C)C(=O)NC(C)(C)C(=O)N[C@@H](CCC(N)=O)C(=O)N[C@H](CC(C)C)C(=O)N[C@H](CO)CC(C)C (stereo partly drawn) (Octanoyl-[Aib]P[X11][Iva]Q[dQ][Aib][Aib]Q[dL][Leu(ol)])
GI50 (OVCAR-3 ovarian): 10.6 µM | TGI (OVCAR-3 ovarian): 24 µM | GI50 (K-562 leukemia): 1.85 µM | TGI (K-562 leukemia): 3.52 µM | GI50 (HT29 colon): 7.35 µM | TGI (HT29 colon): 20.6 µM | GI50 (OVCAR-5 ovarian): 5.64 µM | TGI (OVCAR-5 ovarian): 18.7 µM | GI50 (A549 NSCLC): 5.12 µM | TGI (A549 NSCLC): 21 µM | GI50 (RXF 393 renal): 1.79 µM | TGI (RXF 393 renal): 3.37 µM | GI50 (BT-549 breast): 2.01 µM | TGI (BT-549 breast): 3.63 µM | GI50 (CAKI-1 renal): 4.89 µM | TGI (CAKI-1 renal): 18.4 µM | GI50 (A498 renal): 2.74 µM | TGI (A498 renal): 7.25 µM | GI50 (UACC-257 melanoma): 1.8 µM | TGI (UACC-257 melanoma): 3.75 µM | GI50 (HCT-15 colon): 5.2 µM | TGI (HCT-15 colon): 18.2 µM | GI50 (HOP-62 NSCLC): 3.16 µM | TGI (HOP-62 NSCLC): 11.2 µM | GI50 (M14 melanoma): 2.66 µM | TGI (M14 melanoma): 7.2 µM | GI50 (SF-268 CNS): 2.96 µM | TGI (SF-268 CNS): 10.2 µM | GI50 (MDA-MB-231 breast): 3.16 µM | TGI (MDA-MB-231 breast): 10.1 µM | GI50 (TK-10 renal): 4.54 µM | TGI (TK-10 renal): 15 µM | GI50 (NCI/ADR-RES ovarian): 8.82 µM | TGI (NCI/ADR-RES ovarian): 22.4 µM | GI50 (NCI-H226 lung): 2.25 µM | TGI (NCI-H226 lung): 5.92 µM | GI50 (MOLT-4 leukemia): 2.43 µM | TGI (MOLT-4 leukemia): 5.62 µM | GI50 (SK-OV-3 ovarian): 10.7 µM | TGI (SK-OV-3 ovarian): 23.9 µM | GI50 (SNB-19 CNS): 3.95 µM | TGI (SNB-19 CNS): 14.6 µM | GI50 (HCC-2998 colon): 3 µM | TGI (HCC-2998 colon): 10.1 µM | GI50 (EKVX NSCLC): 2.83 µM | TGI (EKVX NSCLC): 9.74 µM | GI50 (HL-60(TB) leukemia): 1.74 µM | TGI (HL-60(TB) leukemia): 3.86 µM | GI50 (MCF7 breast): 2.95 µM | TGI (MCF7 breast): 10.7 µM | GI50 (ACHN renal): 7.45 µM | TGI (ACHN renal): 19.9 µM | GI50 (LOX IMVI melanoma): 3.56 µM | TGI (LOX IMVI melanoma): 13.6 µM | GI50 (SK-MEL-28 melanoma): 1.81 µM | TGI (SK-MEL-28 melanoma): 3.38 µM | GI50 (U251 CNS): 1.74 µM | TGI (U251 CNS): 3.2 µM | GI50 (SK-MEL-2 melanoma): 6.7 µM | TGI (SK-MEL-2 melanoma): 19.4 µM | GI50 (DU-145 prostate): 2.15 µM | TGI (DU-145 prostate): 4.61 µM | GI50 (NCI-H460 lung): 3.89 µM | TGI (NCI-H460 lung): 13.1 µM | GI50 (CCRF-CEM leukemia): 2.35 µM | TGI (CCRF-CEM leukemia): 5.63 µM | GI50 (SN12C renal): 3.12 µM | TGI (SN12C renal): 11.6 µM | GI50 (KM12 colon): 2.16 µM | TGI (KM12 colon): 4.77 µM | GI50 (SR leukemia): 1.79 µM | TGI (SR leukemia): 3.64 µM | GI50 (MDA-MB-435): 1.93 µM | TGI (MDA-MB-435): 3.83 µM | GI50 (786-0 renal): 2.71 µM | TGI (786-0 renal): 7.6 µM | GI50 (HS 578T breast): 2.45 µM | TGI (HS 578T breast): 6.8 µM | GI50 (COLO 205 colon): 2.03 µM | TGI (COLO 205 colon): 4.04 µM | GI50 (SF-539 CNS): 1.95 µM | TGI (SF-539 CNS): 4.14 µM | GI50 (UO-31 renal): 3.1 µM | TGI (UO-31 renal): 14.9 µM | GI50 (SW-620 colon): 6.91 µM | TGI (SW-620 colon): 20.2 µM | GI50 (NCI-H522 lung): 2.27 µM | TGI (NCI-H522 lung): 6.34 µM | GI50 (OVCAR-4 ovarian): 10.4 µM | TGI (OVCAR-4 ovarian): 24.1 µM | GI50 (MALME-3M melanoma): 1.96 µM | TGI (MALME-3M melanoma): 4.68 µM | GI50 (SNB-75 CNS): 1.42 µM | TGI (SNB-75 CNS): 3.24 µM | GI50 (IGROV1 ovarian): 6.83 µM | TGI (IGROV1 ovarian): 20.3 µM | GI50 (SK-MEL-5 melanoma): 1.85 µM | TGI (SK-MEL-5 melanoma): 3.52 µM | GI50 (PC-3 prostate): 2.34 µM | TGI (PC-3 prostate): 6.75 µM | GI50 (HCT-116 colon): 4.11 µM | TGI (HCT-116 colon): 16 µM | GI50 (SF-295 CNS): 2.27 µM | TGI (SF-295 CNS): 5.61 µM | GI50 (UACC-62 melanoma): 3.02 µM | TGI (UACC-62 melanoma): 11.2 µM | GI50 (RPMI-8226 leukemia): 2.38 µM | TGI (RPMI-8226 leukemia): 5.28 µM | GI50 (T-47D breast): 4.34 µM | TGI (T-47D breast): 20.3 µM | GI50 (OVCAR-8 ovarian): 3.16 µM | TGI (OVCAR-8 ovarian): 12.3 µM
